Reference: US5321030A, “Creatine analogs having antiviral activity” (priority 1991, dated 1994)
In brackets after ≈: the same amount, converted by molar mass. Read-outs that look alike come from different tables or passages of the source.

Experiments:
HSV-1 = test: Cytopathic effect (CPE) assay, HSV-1
[1] = system: Herpes Simplex Virus, Type 1, strain BW10168 (TK-); test: microbe, parasite or virus in culture; format: cell-based; design: TI50 (CD50 ÷ ED50): unit not given beside the values; settings: for Average CPE: virus controls 4.0
[2] = system: herpes simplex virus type 2 (HSV-2), strain E194; test: HSV-2 vaginitis in mice; format: in vivo, Swiss Webster female mice; settings: for Mean Day to Death: virus infected
[3] = system: Pseudorabies virus, Aujeszky strain; format: cell-based; settings: similar assay
HSV-2 = test: Cytopathic effect (CPE) assay, HSV-2; settings: Human alphaherpesvirus 2, Vero, read-out: concentration required to inhibit cytopathogenicity by 60% or 70%
in vivo = format: in vivo; settings: for survival: mouse, in vivo, read-out: Survivors/Total (%); for Weight Change: uninfected, combined animal weights day 0 to day 15
in vitro = settings: monkey, vero cells

Nc1nc2c(ncn2COCCO)c(=O)[nH]1 [acyclovir]
EC65 (HSV-1; Human alphaherpesvirus 1, Vero, read-out: dose required to inhibit cytopathogenicity by 65%): 0.97 µM
EC50 (HSV-1; Human alphaherpesvirus 1, read-out: in vitro ED50): 7 µM
Average CPE ([1]; Acyclovir 1.0 μg/ml): 4.0
Average CPE ([1]; Acyclovir 3.2 μg/ml): 3.2
Average CPE ([1]; Acyclovir 10 μg/ml): 1.5
Average CPE ([1]; Acyclovir 32 μg/ml): 0.3
Average CPE ([1]; Acyclovir 100 μg/ml): 0.5
Average CPE ([1]; Acyclovir 316 μg/ml): 0.2
Average CPE ([1]; Acyclovir 1000 μg/ml): 0
EC50 ([1]; Human alphaherpesvirus 1, Vero, read-out: ED50, Vero cells, Table 8): 10.6 µg/mL (≈ 47.1 µM)
TI50 (CD50 ÷ ED50) ([1]; Vero cells, Table 8): > 94
average lesion score ([2]; 25 mg/kg/day gavage, Grand Ave. (Days 3-14)): 1.5 ± 0.6
average lesion score ([2]; 25 mg/kg/day gavage, day 3): 0.1 ± 0.2
average lesion score ([2]; 25 mg/kg/day gavage, day 5): 1.3 ± 1.5
average lesion score ([2]; 25 mg/kg/day gavage, day 6): 1.3 ± 1.3
average lesion score ([2]; 25 mg/kg/day gavage, day 7): 1.7 ± 1.6
average lesion score ([2]; 25 mg/kg/day gavage, day 8): 2.1 ± 1.5
average lesion score ([2]; 25 mg/kg/day gavage, day 9): 2.1 ± 1.4
average lesion score ([2]; 25 mg/kg/day gavage, day 10): 2.0 ± 1.2
average lesion score ([2]; 25 mg/kg/day gavage, day 11): 1.9 ± 1.3
average lesion score ([2]; 25 mg/kg/day gavage, day 12): 1.9 ± 1.4
average lesion score ([2]; 25 mg/kg/day gavage, day 13): 1.8 ± 1.5
average lesion score ([2]; 25 mg/kg/day gavage, day 14): 1.8 ± 1.5
average lesion score ([2]; 50 mg/kg/day gavage, Grand Ave. (Days 3-14)): 0.8 ± 0.3
average lesion score ([2]; 50 mg/kg/day gavage, day 3): 0.0 ± 0.0
average lesion score ([2]; 50 mg/kg/day gavage, day 4): 0.2 ± 0.3
average lesion score ([2]; 50 mg/kg/day gavage, day 5): 1.0 ± 1.8
average lesion score ([2]; 50 mg/kg/day gavage, day 6): 0.5 ± 0.7
average lesion score ([2]; 50 mg/kg/day gavage, day 7): 0.8 ± 1.2
average lesion score ([2]; 50 mg/kg/day gavage, day 8): 0.8 ± 0.9
average lesion score ([2]; 50 mg/kg/day gavage, day 10): 0.9 ± 1.2
average lesion score ([2]; 50 mg/kg/day gavage, day 11): 0.9 ± 1.2
average lesion score ([2]; 50 mg/kg/day gavage, day 12): 0.9 ± 1.2
average lesion score ([2]; 50 mg/kg/day gavage, day 14): 1.0 ± 1.3
average lesion score ([2]; 100 mg/kg/day gavage, Grand Ave. (Days 3-14)): 0.7 ± 0.4
average lesion score ([2]; 100 mg/kg/day gavage, day 3): 0.1 ± 0.2
average lesion score ([2]; 100 mg/kg/day gavage, day 4): 0.2 ± 0.3
average lesion score ([2]; 100 mg/kg/day gavage, day 5): 0.4 ± 0.4
average lesion score ([2]; 100 mg/kg/day gavage, day 6): 0.5 ± 0.5
average lesion score ([2]; 100 mg/kg/day gavage, day 7): 0.6 ± 0.7
average lesion score ([2]; 100 mg/kg/day gavage, day 8): 0.8 ± 0.9
average lesion score ([2]; 100 mg/kg/day gavage, day 9): 0.9 ± 0.9
average lesion score ([2]; 100 mg/kg/day gavage, day 10): 1.4 ± 1.2
average lesion score ([2]; 100 mg/kg/day gavage, day 11): 1.0 ± 1.3
average lesion score ([2]; 100 mg/kg/day gavage, day 12): 1.1 ± 1.3
average lesion score ([2]; 100 mg/kg/day gavage, day 13): 0.8 ± 0.9
average lesion score ([2]; 100 mg/kg/day gavage, day 14): 0.7 ± 0.9
average lesion score ([2]; 200 mg/kg/day gavage, Grand Ave. (Days 3-14)): 0.6 ± 0.3
average lesion score ([2]; 200 mg/kg/day gavage, day 3): 0.1 ± 0.2
average lesion score ([2]; 200 mg/kg/day gavage, day 4): 0.1 ± 0.2
average lesion score ([2]; 200 mg/kg/day gavage, day 5): 0.4 ± 0.5
average lesion score ([2]; 200 mg/kg/day gavage, day 6): 0.2 ± 0.3
average lesion score ([2]; 200 mg/kg/day gavage, day 7): 0.4 ± 0.5
average lesion score ([2]; 200 mg/kg/day gavage, day 8): 0.7 ± 0.6
average lesion score ([2]; 200 mg/kg/day gavage, day 9): 0.9 ± 0.7
average lesion score ([2]; 200 mg/kg/day gavage, day 10): 1.0 ± 0.6
average lesion score ([2]; 200 mg/kg/day gavage, day 11): 0.7 ± 0.7
average lesion score ([2]; 200 mg/kg/day gavage, day 12): 0.7 ± 0.7
average lesion score ([2]; 200 mg/kg/day gavage, day 13): 0.8 ± 0.7
average lesion score ([2]; 200 mg/kg/day gavage, day 14): 0.7 ± 0.7
activity in vaginitis model ([2]; 5% cream topical): very effective
average lesion score ([2]; acyclovir 5% cream topical, Grand Ave. (Days 3-14)): 0.3 ± 0.2
average lesion score ([2]; acyclovir 5% cream topical, day 3): 0.1 ± 0.1
average lesion score ([2]; acyclovir 5% cream topical, day 4): 0.1 ± 0.1
average lesion score ([2]; acyclovir 5% cream topical, day 5): 0.1 ± 0.2
average lesion score ([2]; acyclovir 5% cream topical, day 6): 0.2 ± 0.2
average lesion score ([2]; acyclovir 5% cream topical, day 7): 0.2 ± 0.2
average lesion score ([2]; acyclovir 5% cream topical, day 8): 0.2 ± 0.3
average lesion score ([2]; acyclovir 5% cream topical, day 9): 0.2 ± 0.2
average lesion score ([2]; acyclovir 5% cream topical, day 10): 0.6 ± 0.8
average lesion score ([2]; acyclovir 5% cream topical, day 11): 0.5 ± 0.7
average lesion score ([2]; acyclovir 5% cream topical, day 12): 0.3 ± 0.6
average lesion score ([2]; acyclovir 5% cream topical, day 13): 0.3 ± 0.6
average lesion score ([2]; acyclovir 5% cream topical, day 14): 0.3 ± 0.6
Mean Day to Death ([2]; ACV 25 mg/kg): 10.4 ± 2.5
Mean Day to Death ([2]; ACV 50 mg/kg): 11.3 ± 2.1
Mean Day to Death ([2]; ACV 100 mg/kg): 12.0 ± 1.4
Mean Day to Death ([2]; ACV 200 mg/kg): 11.3 ± 2.5
effect against Pseudorabies virus [3]: ineffective
EC (60 or 70) (HSV-2): 1.95 µM
survival (in vivo; 25 mg/kg): 100%
survival (in vivo; 50 mg/kg): 100%
survival (in vivo; 100 mg/kg): 100%
survival (in vivo; 200 mg/kg): 100%
Weight Change (in vivo; ACV 25 mg/kg): 2.8 g
Weight Change (in vivo; ACV 50 mg/kg): 4.0 g
Weight Change (in vivo; ACV 100 mg/kg): 3.5 g
Weight Change (in vivo; ACV 200 mg/kg): 4.8 g
CC50 (in vitro): > 1000 µg/mL
